{
  "source": "patent US10709684B2",
  "about": "“SGLT-2 inhibitors for treating metabolic disorders in patients with renal impairment or chronic kidney disease” (Merck Sharp & Dohme Corp., priority 2014, dated 2020)",
  "assay_type_in_all_cases": "in vivo, human",
  "key": {"[1]": {"assay": "Phase 1 single dose study: pharmacokinetics of ertugliflozin in renal impairment", "conditions": "single 15 mg oral dose; for AUC(0-inf) / Cmax: geometric mean", "text": "(§1) Results of a Phase I, Single Dose Study to Study the Effect of Renal Impairment on the Pharmacokinetics and Pharmacodynamics of Ertugliflozin in Subjects with Type 2 Diabetes Mellitus (T2DM)\n(§2) Ertugliflozin inhibits renal glucose reabsorption resulting in urinary glucose excretion, thereby reducing plasma glucose and HbA1c. The glycemic efficacy of SGLT2 inhibitors depends on the amount of glucose filtered through the kidney and the kidney is potentially a site of ertugliflozin metabolism. As renal impairment (RI) is a co-morbidity of T2DM, this study evaluated the effect of RI on the pharmacokinetics, pharmacodynamics (as measured by 24-hour urinary glucose excretion [UGE24]), safety, and tolerability of ertugliflozin in subjects with T2DM.\n(§3) In this Phase 1, multi-center, open-label study, a single 15 mg oral dose of ertugliflozin was administered in the fasted state to healthy and T2DM subjects with normal renal function (estimated glomerular filtration rate [eGFR]≥90 mL/min) and in T2DM subjects with mild RI (eGFR 60-89 mL/min), moderate RI (eGFR 30-59 mL/min) and severe RI (eGFR<30 mL/min). Serial blood samples and urine samples at specified intervals were collected for 96 hours post-dose for pharmacokinetic evaluation and for measurement of UGE24."}, "[2]": {"test_system": "urinary glucose excretion", "assay": "Phase 1 single dose study: pharmacodynamics, 24-hour urinary glucose excretion (UGE24)", "conditions": "single 15 mg oral dose; for Change from baseline in UGE24: fasted, geometric mean", "text": "as §1, §2, §3"}, "[3]": {"test_system": "healthy and T2DM subjects", "assay": "Phase 1 single dose study: safety and tolerability", "conditions": "single 15 mg dose; subjects with normal renal function and T2DM subjects with renal impairment", "text": "as §2, §3"}, "[4]": {"conditions": "Healthy Normal renal function (eGFR>=90 mL/min), n = 8, fasted"}, "[5]": {"conditions": "T2DM Normal renal function (eGFR>=90 mL/min), n = 6, fasted"}},
  "note": "Read-outs that look alike come from different tables or passages of the source.",
  "data": [
    {"smiles": "CCOc1ccc(Cc2cc([C@]34OC[C@](CO)(O3)[C@@H](O)[C@H](O)[C@H]4O)ccc2Cl)cc1", "note": "[Ertugliflozin, (1S,2S,3S,4R,5S)-5-[4-chloro-3-(4-ethoxy-benzyl)-phenyl]-1-hydroxymethyl-6,8-dioxa-bicyclo[3.2.1]octane-2,3,4-triol]", "values": [
      {"measurement": "AUC(0-inf)", "setting": "[1]; [4]", "value": 1236, "unit": "ng·h/mL"},
      {"measurement": "Cmax", "setting": "[1]; [4]", "value": 219, "unit": "ng/mL"},
      {"measurement": "Cmax", "setting": "[1]; T2DM Mild RI (eGFR 60-89 mL/min), n = 8, fasted", "value": 313, "unit": "ng/mL"},
      {"measurement": "Cmax", "setting": "[1]; T2DM Moderate RI (eGFR 30-59 mL/min), n = 8, fasted", "value": 306, "unit": "ng/mL"},
      {"measurement": "AUC(0-inf)", "setting": "[1]; [5]", "value": 1199, "unit": "ng·h/mL"},
      {"measurement": "Cmax", "setting": "[1]; [5]", "value": 216, "unit": "ng/mL"},
      {"measurement": "Cmax", "setting": "[1]; T2DM Severe RI (eGFR<30 mL/min), n = 6, fasted", "value": 196, "unit": "ng/mL"},
      {"measurement": "effect of renal insufficiency on systemic exposure", "setting": "[1]; compared to subjects with normal renal function", "value": "moderately increased"},
      {"measurement": "AUC(0-inf)", "setting": "[1]; human, in vivo, po, 15 mg, T2DM Mild RI (eGFR 60-89 mL/min), n = 8, fasted, read-out: AUC0-inf", "value": 1910, "unit": "ng·h/mL"},
      {"measurement": "AUC(0-inf)", "setting": "[1]; human, in vivo, po, 15 mg, T2DM Moderate RI (eGFR 30-59 mL/min), n = 8, fasted, read-out: AUC0-inf", "value": 2080, "unit": "ng·h/mL"},
      {"measurement": "AUC(0-inf)", "setting": "[1]; human, in vivo, po, 15 mg, T2DM Severe RI (eGFR<30 mL/min), n = 6, fasted, read-out: AUC0-inf", "value": 1900, "unit": "ng·h/mL"},
      {"measurement": "exposures in healthy subjects versus T2DM subjects with normal renal function", "setting": "[1]; fasted", "value": "similar"},
      {"measurement": "Change from baseline in UGE24", "setting": "[2]; Healthy Normal renal function (eGFR>=90 mL/min), n = 8", "value": 46.3, "unit": "g"},
      {"measurement": "Change from baseline in UGE24", "setting": "[2]; T2DM Mild RI (eGFR 60-89 mL/min), n = 8", "value": 36.0, "unit": "g"},
      {"measurement": "Change from baseline in UGE24", "setting": "[2]; T2DM Moderate RI (eGFR 30-59 mL/min), n = 8", "value": 27.6, "unit": "g"},
      {"measurement": "Change from baseline in UGE24", "setting": "[2]; T2DM Normal renal function (eGFR>=90 mL/min), n = 6", "value": 72.3, "unit": "g"},
      {"measurement": "Change from baseline in UGE24", "setting": "[2]; T2DM Severe RI (eGFR<30 mL/min), n = 6", "value": 10.1, "unit": "g"},
      {"measurement": "UGE24 trend with renal function", "setting": "[2]; despite the higher exposure", "value": "decreased with declining renal function"},
      {"measurement": "tolerability", "setting": "[3]", "value": "well tolerated"}
    ]}
  ]
}
